The source of these data is ChEMBL document CHEMBL4480359, “Phosphotyrosine prodrugs: design, synthesis and anti-STAT3 activity of ISS-610 aryloxy triester phosphoramidate prodrugs” (Medchemcomm, 2019).

Calls of active or inactive are those of the source. No cut-off for these calls is given here.

Data set [1] addresses Signal transducer and activator of transcription 3 (Homo sapiens) (UniProt P40763). Nature of the data set: Inhibition of STAT3 dimerization in human MDA-MB-231 cells assessed as down-regulation of survivin protein expression at 30 uM after 24 hrs by Western blot analysis. Type of data set: cell-based. (In western blotting, separated proteins are transferred to a membrane and probed.)

Data set [2] has the same target. Nature of the data set: Inhibition of STAT3 dimerization in human MDA-MB-231 cells assessed as down-regulation of survivin protein expression at 0.1 to 100 uM after 24 hrs by Western blot analysis. Format: cell-based.
Data set [3] shares this target. Nature of the data set: Inhibition of STAT3 dimerization in human MDA-MB-231 cells assessed as down-regulation of Bcl-xl protein expression at 0.1 to 100 uM after 24 hrs by Western blot analysis. Format: cell-based.
Data set [4] in a line: Stability in human serum incubated for 12 hrs by mass spectrometric analysis. Format: ADME, cell-free.
The nature of data set [5]: Stability in human serum assessed as phosphorus peak formation measured over 12 hrs by [31P]-NMR analysis. Type of data set: ADME, cell-free.

Sequence of Signal transducer and activator of transcription 3 (Homo sapiens) (P40763 whole entry): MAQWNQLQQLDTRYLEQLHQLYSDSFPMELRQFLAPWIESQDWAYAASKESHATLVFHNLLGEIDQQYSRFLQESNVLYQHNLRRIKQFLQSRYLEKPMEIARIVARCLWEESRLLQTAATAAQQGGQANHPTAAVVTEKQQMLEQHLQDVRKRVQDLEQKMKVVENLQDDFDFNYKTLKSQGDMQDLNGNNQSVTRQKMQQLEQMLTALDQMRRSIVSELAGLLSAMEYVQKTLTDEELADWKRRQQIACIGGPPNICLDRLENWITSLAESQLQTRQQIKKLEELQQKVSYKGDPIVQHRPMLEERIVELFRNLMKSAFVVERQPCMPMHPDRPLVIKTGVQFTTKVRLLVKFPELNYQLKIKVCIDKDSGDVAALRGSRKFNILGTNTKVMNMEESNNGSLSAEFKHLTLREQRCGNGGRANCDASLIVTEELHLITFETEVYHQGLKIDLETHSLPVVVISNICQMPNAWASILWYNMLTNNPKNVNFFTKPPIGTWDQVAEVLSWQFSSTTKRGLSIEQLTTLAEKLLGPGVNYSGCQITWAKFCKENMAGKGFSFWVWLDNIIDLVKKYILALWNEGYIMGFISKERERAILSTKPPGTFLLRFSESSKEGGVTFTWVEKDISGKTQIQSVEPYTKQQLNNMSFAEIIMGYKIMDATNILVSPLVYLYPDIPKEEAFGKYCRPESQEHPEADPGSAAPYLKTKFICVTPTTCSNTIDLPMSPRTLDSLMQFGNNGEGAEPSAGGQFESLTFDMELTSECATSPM

As to `COC(=O)[C@H](CC(C)C)NC(=O)[C@H](Cc1ccc(OP(=O)(N[C@@H](C)C(=O)OC(C)C)Oc2cccc3ccccc23)cc1)NC(=O)c1ccc(C#N)cc1` (some centres undefined), the inhibition result in data set [1], in data set [2] and in data set [3] was “Active” throughout. Besides, the Stability result in data set [4] and in data set [5] was “Stable” in each case.

Take `COC(=O)[C@H](CC(C)C)NC(=O)[C@H](Cc1ccc(OP(=O)(N[C@@H](C)C(=O)OCc2ccccc2)Oc2cccc3ccccc23)cc1)NC(=O)c1ccc(C#N)cc1` (some centres undefined): the inhibition result in data set [2] and in data set [3] was “Active” throughout.

For `COC(=O)[C@H](C)NP(=O)(Oc1ccc(C[C@H](NC(=O)c2ccc(C#N)cc2)C(=O)N[C@@H](CC(C)C)C(=O)OC)cc1)Oc1cccc2ccccc12` (some centres undefined), the inhibition entry in data set [1], in data set [2] and in data set [3] was “Active” each time.

With `CC(C)C[C@H](NC(=O)[C@H](Cc1ccc(OP(=O)(O)O)cc1)NC(=O)c1ccc(C#N)cc1)C(=O)O`, the inhibition entry in data set [2] and in data set [3] was “inactive” each time.

Consider `COC(=O)[C@H](CC(C)C)NC(=O)[C@H](Cc1ccc(OP(=O)(O)O)cc1)NC(=O)c1ccc(C#N)cc1`, for which the inhibition result in data set [2] and in data set [3] was “inactive” each time.
